Reference: ChEMBL document CHEMBL3639243, “Oxadiazole derivative having endothelial lipase inhibitory activity” (2014)

Molecular target: T1, Endothelial lipase (Homo sapiens, UniProt Q9Y5X9)
T1 sequence (Q9Y5X9 whole entry): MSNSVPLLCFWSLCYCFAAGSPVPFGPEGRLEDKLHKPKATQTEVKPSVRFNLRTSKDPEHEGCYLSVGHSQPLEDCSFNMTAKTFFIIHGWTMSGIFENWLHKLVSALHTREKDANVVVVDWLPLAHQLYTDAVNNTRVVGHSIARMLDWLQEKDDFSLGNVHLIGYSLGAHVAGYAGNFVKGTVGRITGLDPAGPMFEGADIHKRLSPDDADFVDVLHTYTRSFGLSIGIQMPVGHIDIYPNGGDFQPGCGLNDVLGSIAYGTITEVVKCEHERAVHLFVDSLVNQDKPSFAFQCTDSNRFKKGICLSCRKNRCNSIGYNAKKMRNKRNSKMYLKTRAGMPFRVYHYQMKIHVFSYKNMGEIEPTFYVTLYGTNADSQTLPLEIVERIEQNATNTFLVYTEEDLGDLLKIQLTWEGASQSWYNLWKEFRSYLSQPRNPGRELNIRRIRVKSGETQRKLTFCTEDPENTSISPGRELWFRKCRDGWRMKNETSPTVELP
Experiment: Inhibition Assay: After the present compound dissolved in DMSO was added to become 0.5% DMSO to the reaction buffer consisting of 20 mM tris hydrochloric acid (pH7.4), bovine serum albumin (0.5%), calcium chloride (4 mM), sodium chloride (150 mM) and human HDL (2 mg/ml), the EL enzyme was added (total volume was 20 μl). After 4-hour reaction at 37 C., non-esterified fatty acid (NEFA) generated from HDL by EL was measured with a commercially available assay kit and the amount of NEFA was used as an index of enzyme activity. Considering the enzyme activity without the inhibitor as a control value, the inhibition rate of each concentration of the present compound was calculated, and 50% inhibitory concentration (IC50 value) was calculated from an inhibition curve.

- IC50: 14 nM
SMILES: N#CC1(NC(=O)Cc2nnc(Cc3nc4ccc(-c5ccc(Cl)s5)c(F)c4s3)o2)CC1
